# Where no end group is shown, it is not given here.
# Columns and labels:
# [1] = test system: MRC-5 cells; assay: Cytotoxicity in MRC-5 cells (CellTiter 96 cell viability); details: 6 days incubation
# [2] = test system: Streptococcus pneumoniae; format: cell-based; details: 5 micrograms per ml
# [3] = test system: Pseudomonas aeruginosa; format: cell-based; details: 5 micrograms per ml
# [4] = in vitro; details: human
# [5] = test system: MRSA; details: 5 micrograms per ml
# [6] = in vitro; details: human, HepG2-2.2.15 cells
# [7] = in vitro; details: human, MRC-5 cells
Molecule,% Cell viability [1] [%],% inhibition [2] [%],% inhibition [3] [%],viability at 10 micrograms per ml [4] [%],% inhibition [5] [%],"viability at 144 h, 10 micrograms per ml [6] [%]",viability at 144 h [7] [%]
Nc1nc(O)c2ncn(COC(CO)CO)c2n1 [Ganciclovir],100,,,,,,
VPIQKVQDDTKTLIKTIVTRINDISHTQSVSSKQK-OH [Leptin (22-56)],,0.0,0.0,93.5,0.0,100,100
